Data set [1] concerns hepatitis B virus (HBV) ayw strain. Description: HBV replication assay, secreted HBV DNA by TaqMan PCR. The class given is cell-based. The conditions noted are these: HepG2-2.2.15; peptide 10 micrograms per ml; six days; HBV DNA in supernatant.
The nature of data set [2]: Cell viability (dye uptake) in HBV assay. The note with it: human, HepG2-2.2.15, peptide 10 micrograms per ml. The class given is cell-based.
In data set [3] the test system is HCMV strain AD169. Description: HCMV plaque reduction assay in MRC-5 cells. It is filed as cell-based. The note with it: peptide 10 micrograms per ml, 7-10 days. An excerpt:
Ganciclovir was used as positive control.

The nature of data set [4]: Cytotoxicity testing in MRC-5 cells (CellTiter 96). The conditions noted are these: human, MRC-5 cells (embryonal lung fibroblasts); MRC-5 cells; 6 days incubation; read-out: % Cell viability. It is filed as cell-based. The method, then:
For cytotoxicity testing, MRC-5 cells were seeded at 2,500 cells/well in 96 well plates using growth medium. […] The following day, peptide was added and tested in duplicates. After a 6 days incubation period, cell viability was measured using CellTiter 96 Solution (Promega). Plates were incubated for additional 4 hours at 37° C.

In data set [5] the test system is Pseudomonas aeruginosa. The data set can be described thus: Pseudomonas aeruginosa assay. The class given is cell-based. The note with it: peptide 10 micrograms per ml, read visually. The method, then:
(§1) The antibacterial assay was conducted using clear, U-bottom 96-well microtiter plates. Cation-adjusted Mueller-Hinton Broth (MHB) was used for testing Pseudomonas aeruginosa. The peptide of the invention (0.1 ml of each—10 micrograms per ml—) was dispensed into wells in duplicate. Then the wells were inoculated with 5×10^5 CFU/mL Pseudomonas aeruginosa in 0.1 ml volume. For control purposes, each plate included 4 wells containing media without bacterial inoculum and 4 wells containing medium with inoculum but without peptide. The plates were incubated for 12 h at 37° C., and read visually 18-24 hours post-incubation. Growth control of Pseudomonas aeruginosa was examined first to determine adequacy of media preparations and growth conditions. Acceptable growth is defined as ≧2 mm wide button of cells at the bottom of each sample well, or obvious turbidity in the culture supernatant. Test wells were examined and scored as positive/negative for activity. A positive score for activity is based on complete inhibition of macroscopic growth of the test Pseudomonas aeruginosa.

Data set [6] relates to Streptococcus pneumoniae. The data set can be described thus: Streptococcus pneumoniae assay. The note with it: peptide 10 micrograms per ml, read visually. The class given is cell-based. On the procedure: as §1, with “Streptococcus pneumoniae.” for “Pseudomonas aeruginosa.”, “Streptococcus pneumoniae” for “Pseudomonas aeruginosa”
The subject of data set [7] is Human A549 cells. Description: Apoptosis induction assay (Annexin-5). It is filed as cell-based. The conditions noted are these: peptide 10 micrograms per ml, 24 hours. An excerpt:
Human A549 cells (carcinomic human alveolar basal epithelial cells) were utilized in the experiments employing the Annexin-5 apoptosis assay. Annexin-5 is a member of a highly conserved protein family that binds acidic phospholipids in a calcium-dependent manner. […] Phosphatidylserine is translocated from the inner side of the plasma membrane to the outer layer when cells undergo death by apoptosis or cell necrosis and serves as a signal by which cell destined for death are recognized by phagocytes. Test peptide—10 micrograms per ml—were exposed for 24 hours to the A549 cells before they were analyzed for signs of apoptosis.

In data set [8] the test system is Human A549 cells. Description: Apoptosis prevention assay (C2 ceramide, Annexin-5). The note with it: pretreated 30 min with peptide 10 micrograms per ml. It is filed as cell-based. The source says:
Human A549 cells (carcinomic human alveolar basal epithelial cells) were utilized in the experiments employing the Annexin-5 apoptosis assay. Annexin-5 is a member of a highly conserved protein family that binds acidic phospholipids in a calcium-dependent manner. […] Phosphatidylserine is translocated from the inner side of the plasma membrane to the outer layer when cells undergo death by apoptosis or cell necrosis and serves as a signal by which cell destined for death are recognized by phagocytes. A549 cells were pretreated for 30 min with test peptide -10 micrograms per ml—followed by the exposure to C2 ceramide. Ceramide mediates cell apoptosis through the activation of the mitogen activating protein kinase (MAPK) and the stress activated kinase (JNK/SAPK). C2 ceramide is a synthetic, membrane soluble analog of ceramide.

The subject of data set [9] is spleen cells of Ovalbumin immunized Balb/c mice. The data set can be described thus: Th1/Th2 cytokine profiling assay. The conditions noted are these: peptide 10 micrograms per ml; Ovalbumin restimulation; 72 hours. It is filed as cell-based, mouse. An excerpt:
The Balb/c mice (originated in 1923, it is a popular strain and is used in many different research disciplines. Also classified as an inbred from the production of 20 or more successive brother-sister matings, the Balb/c mouse is albino and small in size) were immunized on Days 1, 15, and 29 with Ovalbumin (Ovalbumin is the main protein found in egg white, commonly used to stimulate an immunological reaction in test animals) in PBS (5 micrograms/injection). On day 50, spleens of the mice were harvested (3 weeks after last boost with Ovalbumin). Cells were cultured (2×10^5/well in triplicate) and incubated with culture medium or test peptide—10 micrograms per ml—for 30 min. Thereafter, additional Ovalbumin was added to the cells at 10 micrograms/ml for in vitro restimulation of the cells. 72 hours later, cell supernatants were harvested and assayed using the Becton Dickinson Mouse Th1/Th2 Cytokine CBA Kit. This kit can be used to measure Interleukin-2 (IL-2), Interleukin-4 (IL-4), Interleukin-5 (IL-5), Interferon-γ (IFN-γ), and Tumor Necrosis Factor-α (TNF-α) protein levels in a single sample. The kit performance has been optimized for analysis of physiologically relevant concentrations ([…] levels) of specific cytokine proteins in tissue culture supernatants and serum samples.

Data set [10] relates to Human Peripheral Blood Mononuclear Cells (PBMC). The conditions noted are these: T cell proliferation; peptide 10 micrograms per ml; 3 days.
Experimental: Human Peripheral Blood Mononuclear Cells (PBMC) were obtained from normal human donors. The T cell proliferation was induced by stimulation of the cells with the T cell mitogen phytohemagglutinin (PHA), either in the absence (positive proliferation control), or in the presence of test peptide—10 micrograms per ml—to examine their effects on the T cell proliferating response. 10^5/well PBMC were plated in 96-well microtiter plates and assayed in duplicate with the peptide. Cell cultures were incubated at 37° C. for 3 days in a 5% CO2 incubator and were thereafter pulsed with 1 microCi/well ^3H-thymidine for additional 12 hours of culture. At the end of incubation time, the plates were harvested and the cells counted by liquid scintillation for the incorporation of ^3H-thymidine as a measure of T cell proliferation.

In the case of `C[C@@H](O)[C@@H]1NC(=O)[C@H](CCCCN)NC(=O)[C@@H](Cc2c[nH]c3ccccc23)NC(=O)[C@H](Cc2ccccc2)NC(=O)[C@@H](NC(=O)[C@H](N)Cc2ccccc2)CSSC[C@@H](C(=O)N[C@H](CO)[C@@H](C)O)NC1=O` [Octreotide, H-D-Phe-Cys-Phe-D-Trp-Lys-Thr-Cys-L-threoninol], in data set [1], the “% inhibition of HBV replication in HEP G2 cells” value amounted to 13.4%. Further, in [2], the viability at 144 h, 10 micrograms per ml turned out to be 97.8%. In addition, the “% plaque reduction” value in data set [3] worked out at 0.0%. Further, in data set [4], the viability at 144 h is 100%. In addition, the “% inhibition” value in data set [5] was determined as 0.0%. Further, the “% inhibition” value in data set [6] turned out to be 100.0%. Also, the “% of induction” value in [7] amounted to 2.6%. In data set [8], the “% prevention of ceramide induced apoptosis” value is reported as 0.0%. In addition, in [9], the “IFNγ spleen cells; TH1 response (% of control)” value was 56.0 % of control, the “IL-2 spleen cells (% of control)” value is 159.5 % of control, the “IL-4 spleen cells; TH2 response (% of control)” value is given as 114.4 % of control and the “IL-5 spleen cells; TH2 response (% of control)” value was 96.1 % of control. The “TNF-a spleen cells; TH1 response (% of control)” value in [9] was 113.0 % of control. In [10], the “% of PHA induced control” value is recorded as 100.0%.

The record behind these values is patent US20100204149A1, “USE OF OCTREOTIDE AS A THERAPEUTIC AGENT” (priority 2007, published 2010).
